Assay results reported in patent US8188148B2, “Substituted 1,3-diphenylpropane derivatives, preparations and uses thereof” (Genfit, priority 2006, dated 2012).

Assays:
db/db mouse = assay: In vivo evaluation on db/db mouse: body weight, glycemia, insulinemia, plasma lipids; settings: 50 mpk per os, 28 days
Protocol: The effect of the compounds according to the invention is evaluated in vivo on the db/db mouse by measuring the body weight evolution, the glucose levels, the insulin levels, the plasma total cholesterol and triglyceride levels, and by analyzing the distribution of cholesterol in different plasma lipoprotein fractions, after 28 days of a per os treatment with compounds according to the invention.
Female db/db mice were kept on a 12 hour/12 hour light/dark cycle at a constant temperature of 20±3° C. After a one week acclimatization period, the mice were weighed and divided into groups of 8 animals selected so as to render uniform the distribution of their body weights and their plasma lipid rates, determined before the experiment. The tested compounds were suspended in carboxymethylcellulose (Sigma C4888) and administered intra-gastric tube feeding once a day for 28 days at the chosen dose. The animals had free access to food and water (standard diet). Taking of food and weight gain are recorded throughout the experiment. At the end of the experiment, the animals were anesthetized after a 4 hour fast, a blood sample was taken using (EDTA) anticoagulant, then the mice were weighed and euthanized. The plasma was separated by centrifugation at 3000 rotations/minute for 20 minutes. The samples were kept at +4° C. The hepatic tissue and skeletal muscle tissue samples were taken and frozen immediately in liquid nitrogen then conserved at −80° C. for later analysis.
Murine plasma glucose is measured out according to an enzyme-colorimetric method using a Glucose RTU kit (Biomérieux). Glucose is transformed into gluconic acid under the action of glucose oxidase; the reaction releases hydrogen peroxide. Hydrogen peroxide is measured according to the Trinder reaction which, under the action of a peroxidase and in the presence of phenol and amino-4-antipyrine, produces water and a colored product, quinoneimine. The color intensity, due to the quinoneimine, is proportional to the amount of glucose present in the sample.
Murine insulin is measured using ELISA method (using the INSKR020 kit from provider Crystal chem.). A microplate is coated with a mouse anti-insulin antibody. Then, the serum to be assayed for insulin is placed onto the plate. A guinea pig anti-insulin antibody is used to recognize the complex formed by the mouse insulin and the anti-insulin monoclonal antibody. Finally an anti-guinea pig antibody labeled with peroxidase is added and bind to the guinea pig anti-insulin antibody. The colorimetric reaction is performed by adding an OPD (ortho phenyl diamine) enzyme substrate. The intensity of the color is proportional to the amount of insulin present in the sample.
Plasma lipid concentrations (total cholesterol and triglycerides) are measured by enzymatic assays (bioMérieux-Lyon-France) according to the provider's recommendations.
The different lipid fractions (VLDL, LDL, HDL) in the plasma were separated using gel-filtration chromatography. Cholesterol concentrations were then measured for each fraction by enzymatic assays (bioMérieux-Lyon-France) according to the provider's recommendations.

[1] = tested on: PPARs target genes (PDK4, UCP2); assay: Hepatic and skeletal muscle gene expression by quantitative RT-PCR in db/db mouse; type: in vivo; settings: 50 mpk, 28 days
Protocol: The effectiveness of the compounds according to the invention is also evaluated by measuring, in the hepatic and muscular (skeletal) tissues, the expression of genes involved in lipid and/or glucid metabolism and in energy dissipation. Each level of gene expression is normalized regarding the expression level of the reference gene 36B4 in the hepatic tissue, or regarding the expression level of the reference gene 18S in the gastrocnemius skeletal muscle. The induction factor, i.e. the ratio between the relative signal (induced by the compound according to the invention) and the average of the relative values obtained with the control group, is then calculated. The higher the induction factor is, the more the greater the compound promotes gene expression. The final result is represented as the average of the induction values obtained with each experimental group. • FIG. 4-8: Expression of PDK4 in the hepatic tissue of the db/db mouse, after 28 days of treatment with compound 1 and compound 3, administered at 50 mpk • FIG. 4-9: Expression of UCP2 (uncoupling protein 2) in the skeletal muscle tissue of the db/db mouse, after 28 days of treatment with compound 1 and compound 3, administered at 50 mpk
Total RNA was extracted from liver fragments by using a NucleoSpin® 96 RNA kit (Macherey Nagel, Hoerdt, France) according to the manufacturer's instructions.
Total RNA was extracted from gastrocnemius skeletal muscle fragments by using a RNeasy® Fibrous Tissue kit (Qiagen) according to the manufacturer's instructions.
1 μg of total RNA (quantified by spectrophotometry) was then reverse-transcripted into complementary DNA by means of a 1 hour reaction at 37° C. in a total volume of 20 μl containing a 1× buffer (Sigma), 1.5 mM of DTT, 0.18 mM of dNTPs (Promega), 200 ng of pdN6 (Amersham), 30 U of RNase inhibitor (Sigma), and 1 μl of MMLV-RT (Sigma).
The PCR quantitative experiments were carried out using the MyiQ Single-Color Real-Time PCR Detection System (Biorad, Marnes-la-Coquette, France) and were performed using the iQ SYBR Green Supermix kit according to the provider's recommendations, in 96-well plates in 5 μl of a diluted reverse-transcription solution at a hybridization temperature of 55° C. The specific primer pairs of the genes being studied were used:
The amount of fluorescence emitted is directly proportional to the amount of complementary DNA present at the beginning of the reaction and amplified during the PCR. For each target studied, a range of solutions is performed with successive dilutions of mixtures of a few microliters of different reverse-transcription solutions. The relative levels of expression of each target are thus determined by using efficiency curves obtained with the points relative to the range of PCR solutions. […]

THP-1 human monocytes = assay: Secretion of MCP1 by THP-1 monocytes stimulated with PMA; type: cell-based; settings: THP-1 cells, 1 μM compound, 5 ng/ml PMA, 24 hours, vs DMSO
Protocol: (§1) The anti-inflammatory effects of the compound according to the invention is evaluated by measuring the secretion of MCP1 (Monocyte chemotactic protein-1) by THP1 monocytes treated for 24 hours with the compounds according to the invention and stimulated simultaneously with PMA (Phorbol 12-myristate 13-acetate, which promotes an inflammatory response in cells and their differentiation into macrophages).
as §1, with “the compounds” for “the compound”, “invention were” for “invention is”, “by” for “by THP1”, “with” for “with the”, “macrophages). […]” for “macrophages).”
The treatment medium is recovered and the MCP1 concentration is measured using the ELISA kit <<Human MCP-1 ELISA Set>> (BD OptEIA; 555179) in accordance with the manufacturer's recommendation.
MCP1 is laid on a plate and is recognized by an anti-MCP1 specific antibody. […] The coloration resulting from enzymatic activity is proportional to the quantity of fixed MCP1 and can be measured by a spectrophotometry method. A range is performed from a point representative of a known concentration and from which the MCP1 concentration of each sample is calculated. […]

For `Cc1cc(CCC(=O)c2ccc(Br)cc2)cc(C)c1OC(C)(C)C(=O)O` [Compound 3, 2-[2,6-dimethyl-4-[3-[4-bromophenyl]-3-oxo-propyl]phenoxy]-2-methylpropanoic acid], the “HDL-cholesterol fraction (distribution of cholesterol in plasma lipoprotein fractions)” value (db/db mouse) was “significant increase”, the “plasma free fatty acids” value (db/db mouse; vs control) was “very significantly decreased” and the plasma triglycerides (db/db mouse; vs control) was “very significantly decreased”. The total plasma cholesterol (db/db mouse; vs control) was “significantly increased”, the “expression of the gene coding for UCP2 in the skeletal muscle” value ([1]; gastrocnemius skeletal muscle) was “reduction” and the “hepatic expression of the gene coding for PDK4” value ([1]; hepatic tissue) was “significant increase”. For the same compound, the “MCP1 secreted by monocytes” value (THP-1 human monocytes) was “significant reduction”.
